# In EPA's ToxValDB 9.5 (doi:10.2903/j.efsa.2005.29r):
# Values joined by “and” are separate entries in the source; they are usually repeats but may differ in a detail not shown here. Equal values may be shown once.
# Assays:
# [1] = test system: Aphidius rhopalosiphi; settings: not reported; mortality
# [2] = test system: Apis mellifera; settings: acute, mortality
# [3] = test system: Canidae; settings: subchronic; duration: 90 days; oral; Dog Other; clinical signs
# [4] = test system: Coturnix coturnix; settings: oral
# [5] = test system: Daphnia magna; settings: chronic/long-term
# [6] = test system: Oncorhynchus mykiss; settings: for NOEC: chronic/long-term
# [7] = test system: Oryctolagus sp.; settings: developmental; development
# [8] = test system: Rattus norvegicus
# [9] = test system: Tagia sp.
# [10] = test system: Typhlodromus pyri; experiment: LR50; higher = less toxic; settings: chronic/long-term; duration: 7 days; mortality
smiles,measurement,setting,value
Cc1ccc(N(SC(F)(Cl)Cl)S(=O)(=O)N(C)C)cc1 [Tolylfluanid],LEL,[1],2500 g/ha
same,LD50,"[2]; duration: 48 hours, dermal",> 196 µg/piece
same,LD50,"[2]; oral, unspecified",> 197 µg/piece
same,NOAEL,[3],33 mg/kg-day
same,LC50,"[4]; acute, duration: 5 days, diet, mortality",> 5000 mg/kg
same,LD50,"[4]; acute, mortality",> 2000 mg/kg
same,NOEC,"[4]; reproduction developmental, duration: 21 weeks, diet",791 mg/kg-day
same,NOAEC,[5]; duration: 40 days,180 µg/L
same,NOAEC,[5]; duration: 51 days,99 µg/L
same,LC50,"[6]; acute, duration: 96 hours, mortality",0.045 µg/mL and 0.016 µg/mL
same,NOEC,[6]; duration: 28 days,44 µg/L
same,NOEC,[6]; duration: 35 days,60 µg/L
same,NOAEL,[7],25 mg/kg-day
same,LD50,"[8]; acute, oral, mortality",> 5000 mg/kg
same,NOAEL,"[8]; reproduction developmental, M, body weight",12 mg/kg-day
same,NOEC,"[8]; short-term, duration: 28 days, oral, diet",1500 mg/kg-day
same,LC50,"[9]; acute, duration: 14 days, mortality",> 1000 mg/kg
same,NOEC,"[9]; chronic/long-term, reproduction",24000 g/ha
same,LR50,[10],247 g/ha
